Assay [1] concerns the target VvCYP76F14 ('Yanniang No.2', Full-Bodied type) (Vitis vinifera, UniProt A0A1B2ZBX8). Particulars: 1 mM NADPH; ATR1 reductase (VvCYP76F14:ATR1 2:1); 100 mM Na+/K+ phosphate pH 5.0; 25 °C; 1 h.
The target of assay [2] is VvCYP76F14 ('Yanniang No.2', Full-Bodied type) (Vitis vinifera, UniProt A0A1B2ZBX8, L351V, form not given). Conditions: 1 mM NADPH; ATR1 reductase (VvCYP76F14:ATR1 2:1); 100 mM Na+/K+ phosphate pH 5.0; 25 °C; 1 h.
Assay [3] has as its target VvCYP76F14 ('Yanniang No.2', Full-Bodied type) (Vitis vinifera, UniProt A0A1B2ZBX8, I173L, form not given). Conditions: 1 mM NADPH; ATR1 reductase (VvCYP76F14:ATR1 2:1); 100 mM Na+/K+ phosphate pH 5.0; 25 °C; 1 h.
Assay [4] deals with VvCYP76F14 ('Yanniang No.2', Full-Bodied type) (Vitis vinifera, UniProt A0A1B2ZBX8, E431G, form not given). Conditions: 1 mM NADPH; ATR1 reductase (VvCYP76F14:ATR1 2:1); 100 mM Na+/K+ phosphate pH 5.0; 25 °C; 1 h.
VvCYP76F14 ('Yanniang No.2', Full-Bodied type) (Vitis vinifera, UniProt A0A1B2ZBX8, E431G, form not given), sequence (A0A1B2ZBX8 entry or part of it E431G, form open): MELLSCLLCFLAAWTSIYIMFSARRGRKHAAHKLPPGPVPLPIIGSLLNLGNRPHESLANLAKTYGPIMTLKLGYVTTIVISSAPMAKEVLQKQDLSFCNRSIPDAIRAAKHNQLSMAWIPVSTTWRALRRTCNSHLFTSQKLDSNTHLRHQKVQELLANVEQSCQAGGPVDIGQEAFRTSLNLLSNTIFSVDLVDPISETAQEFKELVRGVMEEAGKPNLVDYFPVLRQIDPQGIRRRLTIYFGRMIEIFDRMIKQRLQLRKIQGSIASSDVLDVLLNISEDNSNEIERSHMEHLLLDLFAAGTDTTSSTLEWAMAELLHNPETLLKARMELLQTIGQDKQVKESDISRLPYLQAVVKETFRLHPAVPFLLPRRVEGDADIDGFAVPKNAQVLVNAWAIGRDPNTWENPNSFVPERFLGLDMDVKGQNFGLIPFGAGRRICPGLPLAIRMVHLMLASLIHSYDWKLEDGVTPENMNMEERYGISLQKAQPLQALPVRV
The target of assay [5] is T1, VvCYP76F14 ('Marselan', Aromatic type) (Vitis vinifera, UniProt A0A1B2ZBX8).
T1 construct: 499 residues; natural allele, versus Yanniang No.2: N46S/N111K/R175Q/L222V/M264I/S286N/L298V/K325T/E378G/T380A/E383D/T386A; MBP fusion in E. coli, MBP cut off with TEV protease; reductase partner Arabidopsis ATR1
T1 sequence (A0A1B2ZBX8 entry or part of it): as the sequence (A0A1B2ZBX8 entry or part of it E431G, form open) above, with G431E counted along it
Kind of assay: substrate depletion by HPLC-HRMS. Particulars: 1 mM NADPH; ATR1 reductase; pH 5.0; 25 °C; 1 h. The format is biochemical.

One may read the Km as the substrate concentration at which the rate is half of its maximum.

VvCYP76F14 ('Yanniang No.2', Full-Bodied type) (Vitis vinifera, UniProt A0A1B2ZBX8, I173L, form not given), sequence (A0A1B2ZBX8 entry or part of it I173L, form open): as the sequence (A0A1B2ZBX8 entry or part of it E431G, form open) above, with I173L, G431E counted along it
VvCYP76F14 ('Yanniang No.2', Full-Bodied type) (Vitis vinifera, UniProt A0A1B2ZBX8, L351V, form not given), sequence (A0A1B2ZBX8 entry or part of it L351V, form open): as the sequence (A0A1B2ZBX8 entry or part of it E431G, form open) above, with L351V, G431E counted along it
VvCYP76F14 ('Yanniang No.2', Full-Bodied type) (Vitis vinifera, UniProt A0A1B2ZBX8), sequence (A0A1B2ZBX8 entry or part of it): as the sequence (A0A1B2ZBX8 entry or part of it E431G, form open) above, with G431E counted along it

For the compound `C=CC(C)(O)CC/C=C(\C)CO` (centres unmarked) [(E)-8-hydroxylinalool], the Km in assay [1] turned out to be 29.1 ± 2.66 µM; in assay [2], 30.6 ± 2.85 µM; in assay [3] it was 76.7 ± 7.22 µM; in assay [4] it was 65 ± 6.98 µM. Moreover, the specific activity result in assay [5] is “(E)-8-hydroxylinalool (dehydrogenation), and (E)-8-oxolinalool (carboxylation) as substrates”.

On to `C=CC(C)(O)CC/C=C(\C)C=O` (centres unmarked) [(E)-8-oxolinalool], for which the Km in assay [1] turned out to be 41.4 ± 3.93 µM; in assay [2] it was 41.9 ± 5.24 µM; in assay [3] it was 90.8 ± 12.2 µM; in assay [4], 88.5 ± 9.85 µM.

For `C=CC(C)(O)CCC=C(C)C` (centres unmarked) [linalool], the Km in assay [1] came out at 66.2 ± 5.63 µM; in assay [2], 67.6 ± 6.94 µM; in assay [3], 151 ± 14.6 µM; in assay [4] it was 144 ± 15.6 µM. In assay [5], the specific activity result was “All three VvCYP76F14s demonstrated catalytic activity in reactions utilizing linalool (hydroxylation)”.

These data come from paper PMC11502375, “Cytochrome P450 VvCYP76F14 dominates the production of wine bouquet precursors in wine grapes” (Frontiers in Plant Science, 2024).
